Like-named read-outs stand apart in the source and are kept apart here.
What was measured:
Test in all cases: Kinase panel profiling at 1 µmol/L (MSA or IMAP), percentage inhibition
Type in all cases: biochemical
[1] = molecular target: panel of 255 wild-type kinases (Homo sapiens, UniProt P41240); details: kinase CSK; 1 µmol/L single concentration; read-out: %-inhibition at 1 µmol/L, CSK
[2] = molecular target: panel of 255 wild-type kinases (Homo sapiens, UniProt P14616); details: kinase IRR; 1 µmol/L single concentration; read-out: %-inhibition at 1 µmol/L, IRR
[3] = molecular target: panel of 255 wild-type kinases (Homo sapiens, UniProt P08922); details: read-out: %-inhibition at 1 µmol/L, ROS
[4] = molecular target: panel of 255 wild-type kinases (Homo sapiens, UniProt Q9UM73); details: ALK kinase assay; 1 µmol/L single concentration; read-out: %-inhibition ALK
[5] = molecular target: T1, panel of 255 wild-type kinases (Homo sapiens, UniProt Q96L34); details: MARK4; 1 µmol/L single concentration; read-out: %-inhibition, MARK4
T1 sequence (Q96L34 1-752): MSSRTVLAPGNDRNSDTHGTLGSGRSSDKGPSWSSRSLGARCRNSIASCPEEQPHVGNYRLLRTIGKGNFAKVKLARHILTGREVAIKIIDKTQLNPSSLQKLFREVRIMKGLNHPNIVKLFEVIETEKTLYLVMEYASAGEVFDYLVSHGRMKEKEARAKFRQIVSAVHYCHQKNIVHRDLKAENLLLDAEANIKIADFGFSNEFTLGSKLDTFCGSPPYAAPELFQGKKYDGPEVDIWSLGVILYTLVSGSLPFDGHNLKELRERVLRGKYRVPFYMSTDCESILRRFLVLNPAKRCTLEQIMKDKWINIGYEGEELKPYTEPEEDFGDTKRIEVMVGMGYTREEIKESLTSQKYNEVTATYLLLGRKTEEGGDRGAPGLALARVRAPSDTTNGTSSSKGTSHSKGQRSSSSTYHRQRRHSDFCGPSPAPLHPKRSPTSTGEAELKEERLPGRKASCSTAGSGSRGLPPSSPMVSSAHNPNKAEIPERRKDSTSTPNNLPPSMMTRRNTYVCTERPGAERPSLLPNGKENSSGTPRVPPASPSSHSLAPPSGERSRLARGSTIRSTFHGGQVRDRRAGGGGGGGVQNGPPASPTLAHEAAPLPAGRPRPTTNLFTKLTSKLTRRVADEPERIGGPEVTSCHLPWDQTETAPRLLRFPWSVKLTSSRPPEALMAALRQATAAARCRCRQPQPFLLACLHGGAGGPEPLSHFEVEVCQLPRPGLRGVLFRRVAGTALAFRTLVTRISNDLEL

[6] = molecular target: panel of 255 wild-type kinases (Homo sapiens, UniProt P29376); details: kinase LTK; 1 µmol/L single concentration; read-out: %-inhibition at 1 µmol/L, LTK
[7] = molecular target: T2, panel of 255 wild-type kinases (Homo sapiens, UniProt Q9BZL6); details: kinase PKD2; 1 µmol/L single concentration; read-out: %-inhibition at 1 µmol/L, PKD2
T2 sequence (Q9BZL6 1-878): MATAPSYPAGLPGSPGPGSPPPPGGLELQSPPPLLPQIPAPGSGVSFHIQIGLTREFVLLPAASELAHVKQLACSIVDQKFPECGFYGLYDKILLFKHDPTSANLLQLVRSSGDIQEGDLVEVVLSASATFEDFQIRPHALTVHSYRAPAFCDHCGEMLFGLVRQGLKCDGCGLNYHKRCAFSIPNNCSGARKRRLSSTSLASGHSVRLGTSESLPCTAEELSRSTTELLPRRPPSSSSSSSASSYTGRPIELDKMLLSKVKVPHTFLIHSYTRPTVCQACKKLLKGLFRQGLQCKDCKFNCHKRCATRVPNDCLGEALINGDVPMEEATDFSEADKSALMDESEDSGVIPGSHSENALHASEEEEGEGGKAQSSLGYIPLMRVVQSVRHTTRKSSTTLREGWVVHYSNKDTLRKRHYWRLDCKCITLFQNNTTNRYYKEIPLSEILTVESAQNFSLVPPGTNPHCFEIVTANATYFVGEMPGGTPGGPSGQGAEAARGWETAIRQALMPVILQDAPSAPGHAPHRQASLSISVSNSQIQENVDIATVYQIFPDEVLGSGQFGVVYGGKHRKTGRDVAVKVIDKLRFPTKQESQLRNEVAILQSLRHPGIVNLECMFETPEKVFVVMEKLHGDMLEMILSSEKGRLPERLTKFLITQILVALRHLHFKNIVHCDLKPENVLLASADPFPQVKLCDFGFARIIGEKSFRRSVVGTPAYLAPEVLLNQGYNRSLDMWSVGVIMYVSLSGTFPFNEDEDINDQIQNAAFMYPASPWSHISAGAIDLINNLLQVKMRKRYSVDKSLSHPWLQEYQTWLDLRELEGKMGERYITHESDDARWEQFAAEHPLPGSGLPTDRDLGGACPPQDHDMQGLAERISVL

[8] = molecular target: panel of 255 wild-type kinases (Homo sapiens, UniProt Q00535); details: CDK5/p25 kinase assay; 1 µmol/L single concentration; read-out: %-inhibition CDK5/p25
[9] = molecular target: panel of 255 wild-type kinases (Homo sapiens, UniProt P05771); details: kinase PKCβ1; 1 µmol/L single concentration; read-out: %-inhibition at 1 µmol/L, PKCβ1
[10] = molecular target: panel of 255 wild-type kinases (Homo sapiens, UniProt Q9UKE5); details: kinase TNIK; 1 µmol/L single concentration; read-out: %-inhibition at 1 µmol/L, TNIK
[11] = molecular target: panel of 255 wild-type kinases (Homo sapiens, UniProt P45984); details: kinase JNK2; 1 µmol/L single concentration; read-out: %-inhibition at 1 µmol/L, JNK2
[12] = molecular target: panel of 255 wild-type kinases (Homo sapiens, UniProt O75582); details: MSK1; 1 µmol/L single concentration; read-out: %-inhibition, MSK1
[13] = molecular target: panel of 255 wild-type kinases (Homo sapiens, UniProt O14578); details: kinase CRIK; 1 µmol/L single concentration; read-out: %-inhibition at 1 µmol/L, CRIK
[14] = molecular target: panel of 255 wild-type kinases (Homo sapiens, UniProt Q8IU85); details: CaMK1δ kinase assay; 1 µmol/L single concentration; read-out: %-inhibition CaMK1δ
[15] = kinase ROS, 1 µmol/L single concentration

Row | inhibition at 1 µM [3] [%] | Structure (SMILES) | inhibition at 1 µM [1] [%] | inhibition at 1 µM [2] [%] | inhibition at 1 µM [3, 15] [%] | inhibition at 1 µM [4] [%] | inhibition at 1 µM [5] [%] | inhibition at 1 µM [6] [%] | inhibition at 1 µM [7] [%] | inhibition at 1 µM [8] [%] | inhibition at 1 µM [9] [%] | inhibition at 1 µM [10] [%] | inhibition at 1 µM [11] [%] | inhibition at 1 µM [12] [%] | inhibition at 1 µM [13] [%] | inhibition at 1 µM [14] [%]
1 |  | C[C@H](Nc1ncnc2nc[nH]c12)c1cc2cccc(Cl)c2c(=O)n1-c1ccccc1 [duvelisib] | 1.86 | 7 | -3.53 | 3.74 | 4.7 | 0.216 | -12 | -11 | 5 | 5 | 2 | -8 | -3.16 | 6
2 |  | COC(=O)N[C@@H](C)CNc1nccc(-c2cn(C(C)C)nc2-c2cc(Cl)cc(NS(C)(=O)=O)c2F)n1 [encorafenib] | 1.58 | -3.65 | 14 | 8 | 2.32 | 0.605 | 2.49 | -17 | -1 | 14 | 61 | 11 | 2.72 | -7
3 |  | CCc1nc(C(N)=O)c(Nc2ccc(N3CCC(N4CCN(C)CC4)CC3)c(OC)c2)nc1NC1CCOCC1 [gilteritinib] | 23 | 100 | 100 | 101 | 53 | 101 | 56 | 25 | 19 | 94 | 44 | 25 | 75 | 39
4 | 86 | O=C(Nc1cnn2ccc(N3CCC[C@@H]3c3cc(F)ccc3F)nc12)N1CC[C@H](O)C1 [larotrectinib] | -5 | 1.69 |  | 7 | -6.42 | 16 | -6 | -22 | -2.11 | 1.8 | -0.671 | -0.0628 | -4.22 | 3.44
5 |  | CCN1C(=O)N(c2c(F)c(OC)cc(OC)c2F)Cc2cnc3[nH]c(CN4CCOCC4)cc3c21 [pemigatinib] | 2.28 | 8 | 3.74 | -1.12 | 52 | 1.66 | 4.44 | -12 | 0.544 | 4 | 1.27 | 3.7 | -4.34 | 17
6 |  | FC(F)(F)c1ccc(CNc2ccc(Cc3c[nH]c4ncc(Cl)cc34)cn2)cn1 [pexidartinib] | 9 | 14 | 37 | 11 | 17 | 10 | -5 | -21 | 4.22 | 20 | 2.5 | 10 | -1.09 | 4
7 |  | CO[C@]1(C(=O)N[C@@H](C)c2ccc(-n3cc(F)cn3)nc2)CC[C@H](c2nc(C)cc(Nc3cc(C)[nH]n3)n2)CC1 [pralsetinib] | 0.35 | 10 | 94 | 35 | -9 | 55 | -9 | 43 | 2.58 | 6.58 | 5 | 10 | -0.417 | -7.54
8 |  | CCn1c(=O)c(-c2cc(NC(=O)Nc3ccccc3)c(F)cc2Br)cc2cnc(NC)cc21 [ripretinib] | 50 | 4.5 | 3.79 | 2.68 | -2.13 | 0.637 | 13 | -19 | 1.06 | 28 | 35 | 14 | 20 | 2.32
9 |  | COc1ccc(CN2C3CC2CN(c2ccc(-c4cc(OCC(C)(C)O)cn5ncc(C#N)c45)cn2)C3)cn1 [selpercatinib] | 1.77 | 3 | 64 | 4 | 25 | -3 | 1.11 | -8.52 | -0.445 | 6 | -1.07 | 24 | -4.75 | 9
10 |  | Cc1cc(Nc2ncnc3ccc(NC4=NC(C)(C)CO4)cc23)ccc1Oc1ccn2ncnc2c1 [tucatinib] | 6 | 3 | 21 | 32 | -0.473 | 49 | 44 | -5 | 0.869 | 4 | 1.47 | 2.56 | -2.49 | -3.73

Source: PMC9516332 (Frontiers in Oncology, 2022)
